According to patent publication US20120171144A1, “METHODS OF TREATING, REDUCING AND INHIBITING THE APPEARANCE OF AGEING IN THE SKIN” (priority 2006, published 2012):

Tests used:
aortic elastin = experiment: 3H-elastin cleavage assay, aortic elastin; type: biochemical
Description: (§1) FIG. 2: granzyme B degrades elastin in vitro. Granzyme B was incubated with ^3H-elastin for 7 days at room temperature. Elastase was incubated with ^3H-elastin for 2 hours. Supernatants containing the soluble elastin cleavage fragments were collected and counted. Data is represented as fold increase in radioactivity over the control (elastin only). (n=2)
(§2) Tritiated elastin was prepared with the modifications as described in Banda, M. J. and Werb, Z. (1981) Biochem J 193: 589-605 and Gordon, S., Werb, Z. and Cohn, Z. A. (1976) in In Vitro Methods in Cell Mediated and Tumor Immunity, eds. Bloom, B. R. and David, J. R. (Academic Press, New York), pages 349-350. 1 mg of skin or aortic elastin was diluted in 1 ml dH2O and pHed to 9.2. 1 mCi NaB3H4 (PerkinElmer, Waltham Mass.) and 2 mg of non-radioactive […] (Sigma, St. Louis, Mo.) was added. After 2 hours of incubation, the pH was adjusted to 3.0 and the elastin was incubated for an additional 30 minutes. The elastin was centrifuged for 3 minutes at 5000×g and the pellet was repeatedly washed to remove excess NaB3H4. […] The radioactivity of the soluble, cleaved elastin fragments in the supernatant was counted in Ready Safe Scintillation Fluid (Beckman-Coulter, Fullerton, Calif.). The radioactivity of the cleaved, soluble elastin fragments was 4.8 times and 2.7 times higher than background for skin and aortic elastin, respectively (FIG. 2).

skin elastin = experiment: 3H-elastin cleavage assay, skin elastin; type: biochemical
Description: as §1, §2

[1] = 25 μg elastase, 2 hours, positive control
[2] = 0.15 mg 3H-elastin, granzyme B 0.75 μg added 5 times, room temperature, 7 days

elastase
radioactivity increase over background (aortic elastin; [1]): 7.7 fold
radioactivity increase over background (skin elastin; [1]): 14.9 fold

granzyme B: serine protease that is capable of cleaving elastin and other extracellular proteins
radioactivity of the cleaved, soluble elastin fragments, higher than background (aortic elastin; [2]): 2.7 times
radioactivity of the cleaved, soluble elastin fragments, higher than background (skin elastin; [2]): 4.8 times
